Target: JNK3 (Homo sapiens, UniProt P53779)
Test: JNK3 SPA assay
Format: biochemical
Conditions: 3.33 μM ATP, GST-c-Jun substrate; read-out: IC50 against JNK3
Description: JNK1, JNK2, JNK3—SPA Assay
JNK1, JNK2, JNK3—SPA Assay • 1. Compound is dissolved in DMSO to a convenient concentration and this is diluted in 10% DMSO to a five times concentrate of the desired starting concentration (frequently 1:100). • 2. 10 μl of 500 mM EDTA is added to alternative wells of the Opti-plate row, which will receive kinase reaction plus DMSO. This creates the negative control. • 3. For the JNK2 and JNK3 assay, compounds are prepared in six 2-fold dilutions with water and each concentration is tested in duplicate. For the JNK1 assay compounds are prepared in four 5-fold dilutions with water which are tested in triplicate. Controls are treated identically. • 4. 20 μl per well of each compound concentration is transferred to an Opti-plate, in duplicate. • 5. 30 μl (JNK2/3 SPA) or 50 μl (JNK1 SPA) of substrate solution (25 mM HEPES pH 7.5, 10 mM magnesium acetate with 3.33 μM ATP (JNK2/3) or 2 μM ATP (JNK1), approximately 7.5 kBq [γ-^33P] ATP, GST-c-Jun, in water) is added to each well. • 6. 50 μl (JNK2/3 SPA) or 30 μl (JNK1 SPA) of kinase solution (JNK in 25 mM HEPES pH 7.5, 10 mM Mg Acetate) is added to each well.
• 7. The plate is incubated for 30 minutes at room temperature. • 8. 100 μl of bead/stop solution is added to each well (5 mg/ml glutathione-PVT-SPA beads, 40 mM ATP in PBS). • 9. Plates are sealed and incubated for 30 minutes at room temperature, centrifuged for 10 minutes at 2500 g and counted. • 10. The IC50 values are calculated as the concentration of the compound being tested at which the phosphorylation of c-Jun is decreased to 50% of the control value.

JNK3, sequence (P53779 whole entry, species assumed): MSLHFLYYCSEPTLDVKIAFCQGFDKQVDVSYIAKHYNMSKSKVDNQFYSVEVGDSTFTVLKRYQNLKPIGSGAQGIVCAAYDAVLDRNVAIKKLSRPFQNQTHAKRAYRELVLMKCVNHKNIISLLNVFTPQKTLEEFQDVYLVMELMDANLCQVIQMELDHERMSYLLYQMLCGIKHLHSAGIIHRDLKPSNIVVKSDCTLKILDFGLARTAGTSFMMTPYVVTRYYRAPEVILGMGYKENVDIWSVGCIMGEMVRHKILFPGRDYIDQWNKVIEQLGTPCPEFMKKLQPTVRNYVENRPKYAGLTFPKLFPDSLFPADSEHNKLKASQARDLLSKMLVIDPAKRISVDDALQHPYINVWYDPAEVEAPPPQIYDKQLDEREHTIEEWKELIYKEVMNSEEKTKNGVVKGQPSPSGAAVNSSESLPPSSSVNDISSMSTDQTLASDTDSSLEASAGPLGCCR

IC50 [nM]	Compound
295	Cn1cc(-c2c[nH]c3ncc([C@@H]4C[C@H]5O[C@@H]4CC5C#N)cc23)cn1 (stereo partly drawn) [Compound I-157, (1R,4R,5S)-5-(3-(1-methyl-1H-pyrazol-4-yl)-1H-pyrrolo[2,3-b]pyridin-5-yl)-7-oxabicyclo[2.2.1]heptane-2-carbonitrile]
257	CC1CC(c2cnc3[nH]cc(-c4cnn(C)c4)c3c2)CC(C)(C)C1 (mixture of isomers) [Compound I-36, 3-(1-methyl-1H-pyrazol-4-yl)-5-(3,3,5-trimethylcyclohexyl)-1H-pyrrolo[2,3-b]pyridine]
132	Cn1cc(-c2c[nH]c3ncc(C4CCCC4)cc23)cn1 [Compound I-11, 5-cyclopentyl-3-(1-methyl-1H-pyrazol-4-yl)-1H-pyrrolo[2,3-b]pyridine]
480	COC1=C(c2cnc3[nH]cc(-c4cnn(C)c4)c3c2)CCCC1 [Compound I-31, 5-(2-Methoxy-cyclohex-1-enyl)-3-(1-methyl-1H-pyrazol-4-yl)-1H-pyrrolo[2,3-b]pyridine]
105	C1=C(c2cnc3[nH]cc(-c4cnn(CCN5CCOCC5)c4)c3c2)CCC1 [Compound I-62, 5-Cyclopent-1-enyl-3-[1-(2-morpholin-4-yl-ethyl)-1H-pyrazol-4-yl]-1H-pyrrolo[2,3-b]pyridine]
178	CN1CCN([C@H]2CC[C@@H](c3cnc4[nH]cc(-c5cnn(C(F)(F)F)c5)c4c3)CC2)CC1 [Compound I-67, 5-((1s,4s)-4-(4-methylpiperazin-1-yl)cyclohexyl)-3-(1-(trifluoromethyl)-1H-pyrazol-4-yl)-1H-pyrrolo[2,3-b]pyridine]
288	COCCN(C)[C@H]1CC[C@H](c2cnc3[nH]cc(-c4cnn(C)c4)c3c2)CC1 [Compound I-117, (1r,4r)-N-(2-methoxyethyl)-N-methyl-4-(3-(1-methyl-1H-pyrazol-4-yl)-1H-pyrrolo[2,3-b]pyridin-5-yl)cyclohexanamine]
182	Cn1cc(-c2c[nH]c3ncc([C@H]4CC[C@@H](N5CC[C@@H](F)C5)CC4)cc23)cn1 [Compound I-53, 5-((1S,4s)-4-((R)-3-fluoropyrrolidin-1-yl)cyclohexyl)-3-(1-methyl-1H-pyrazol-4-yl)-1H-pyrrolo[2,3-b]pyridine]
> 500	CN(C)[C@H]1CC[C@@H](c2cnc3[nH]cc(-c4cnn(CCN5CCOCC5)c4)c3c2)CC1 [Compound I-59, (1s,4s)-N,N-dimethyl-4-(3-(1-(2-morpholinoethyl)-1H-pyrazol-4-yl)-1H-pyrrolo[2,3-b]pyridin-5-yl)cyclohexanamine]
219	Cn1cc(-c2c[nH]c3ncc(C4=C[C@H]5O[C@@H]4C[C@@H]5C#N)cc23)cn1 [I-155 exo, (1R,2R,4R)-5-(3-(1-methyl-1H-pyrazol-4-yl)-1H-pyrrolo[2,3-b]pyridin-5-yl)-7-oxabicyclo[2.2.1]hept-5-ene-2-carbonitrile]
288	Cn1cc(-c2c[nH]c3ncc(C4CCC(C)(C)CC4)cc23)cn1 [Compound I-18, 5-(4,4-dimethylcyclohexyl)-3-(1-methyl-1H-pyrazol-4-yl)-1H-pyrrolo[2,3-b]pyridine]
148	FC(F)n1cc(-c2c[nH]c3ncc([C@H]4CC[C@H](N5CCOCC5)CC4)cc23)cn1 [Compound I-80, 4-((1r,4r)-4-(3-(1-(difluoromethyl)-1H-pyrazol-4-yl)-1H-pyrrolo[2,3-b]pyridin-5-yl)cyclohexyl)morpholine]
49	Cn1cc(-c2c[nH]c3ncc(C4=CCC(C)(C)C=C4)cc23)cn1 [Compound I-21, 5-(4,4-dimethylcyclohexa-1,5-dienyl)-3-(1-methyl-1H-pyrazol-4-yl)-1H-pyrrolo[2,3-b]pyridine]
182	Cn1cc(-c2c[nH]c3ncc([C@H]4CC[C@@H](N5CCC(F)(F)C5)CC4)cc23)cn1 [Compound I-48, 5-((1s,4s)-4-(3,3-difluoropyrrolidin-1-yl)cyclohexyl)-3-(1-methyl-1H-pyrazol-4-yl)-1H-pyrrolo[2,3-b]pyridine]
91	Cn1cc(-c2c[nH]c3ncc(C4CCC(c5ccccc5)CC4)cc23)cn1 (mixture of isomers) [Compound I-35, 3-(1-methyl-1H-pyrazol-4-yl)-5-(4-phenylcyclohexyl)-1H-pyrrolo[2,3-b]pyridine]
126	Cn1cc(-c2c[nH]c3ncc(C4=CCCCCC4)cc23)cn1 [Compound I-13, (E)-5-cycloheptenyl-3-(1-methyl-1H-pyrazol-4-yl)-1H-pyrrolo[2,3-b]pyridine]
257	COCCN(C)[C@H]1CC[C@@H](c2cnc3[nH]cc(-c4cnn(C)c4)c3c2)CC1 [Compound I-118, (1s,4s)-N-(2-methoxyethyl)-N-methyl-4-(3-(1-methyl-1H-pyrazol-4-yl)-1H-pyrrolo[2,3-b]pyridin-5-yl)cyclohexanamine]
79	CC1CCCC(c2cnc3[nH]cc(-c4cnn(C)c4)c3c2)C1 (mixture of isomers) [Compound I-32, 3-(1-methyl-1H-pyrazol-4-yl)-5-(3-methylcyclohexyl)-1H-pyrrolo[2,3-b]pyridine]
288	CN1C2CC3CC(C2)C(O)C1(c1cnc2[nH]cc(-c4cnn(C)c4)c2c1)C3 (centres unmarked) [Compound I-153]
275	Cn1cc(-c2c[nH]c3ncc(C4=CCC(C)(C)CC4)cc23)cn1 [Compound I-15, 5-(4,4-dimethylcyclohex-1-enyl)-3-(1-methyl-1H-pyrazol-4-yl)-1H-pyrrolo[2,3-b]pyridine]
204	CCOCCN(CC)[C@H]1CC[C@@H](c2cnc3[nH]cc(-c4cnn(C)c4)c3c2)CC1 [Compound I-108, (1s,4s)-N-(2-ethoxyethyl)-N-ethyl-4-(3-(1-methyl-1H-pyrazol-4-yl)-1H-pyrrolo[2,3-b]pyridin-5-yl)cyclohexanamine]
191	Cn1cc(-c2c[nH]c3ncc([C@H]4CC[C@H](NCCO)CC4)cc23)cn1 [Compound I-129, 2-((1r,4r)-4-(3-(1-methyl-1H-pyrazol-4-yl)-1H-pyrrolo[2,3-b]pyridin-5-yl)cyclohexylamino)ethanol]
219	CN1CCN([C@H]2CC[C@H](c3cnc4[nH]cc(-c5cnn(C(F)(F)F)c5)c4c3)CC2)CC1 [Compound I-66, 5-((1r,4r)-4-(4-methylpiperazin-1-yl)cyclohexyl)-3-(1-(trifluoromethyl)-1H-pyrazol-4-yl)-1H-pyrrolo[2,3-b]pyridine]
87	Cn1cc(-c2c[nH]c3ncc(C4CC5CC4C(CO)C5CO)cc23)cn1 (centres unmarked) [Compound I-140, (5-(3-(1-methyl-1H-pyrazol-4-yl)-1H-pyrrolo[2,3-b]pyridin-5-yl)bicyclo[2.2.1]heptane-2,3-diyl)dimethanol]

Compound	IC50 [nM]
Mixture of 3-(1-methyl-1H-pyrazol-4-yl)-5-(3,5,5-trimethylcyclohex-1-enyl)-1H-pyrrolo[2,3-b]pyridine and 3-(1-methyl-1H-pyrazol-4-yl)-5-(3,3,5-trimethylcyclohex-1-enyl)-1H-pyrrolo[2,3-b]pyridine [Compound I-68]	760
Mixture of 3-(1-methyl-1H-pyrazol-4-yl)-5-(5-methylcyclohex-1-enyl)-1H-pyrrolo[2,3-b]pyridine and 3-(1-methyl-1H-pyrazol-4-yl)-5-(3-methylcyclohex-1-enyl)-1H-pyrrolo[2,3-b]pyridine [Compound I-29]	98

Reference: patent US8178552B2, “7-Azaindole derivatives and their use in the inhibition of c-Jun N-terminal kinase” (Eisai R&D Management Co., Ltd., priority 2008, dated 2012)
